Like-named read-outs stand apart in the source and are kept apart here.
How the values were obtained:
[1] = Procedure: (§1) The 3xTg-AD mice and WT mice (female, 9 months old) used for the present study were habituated to handling for 14 days prior to the experiment. Female mice were used because the female 3xTg-AD mice develop behavioral deficits faster than the male mice. The selection of the age of 9 months was because the 3xTg-AD mice at this age show neurogenic and neuroplastic deficits but no NFTs or amyloid plaques and are cognitively impaired. Intranasal delivery was carried out manually without anesthesia while the mouse head was restrained in a supine position with the neck in extension, as described. A total of 1.75 U/17.5 μl insulin or 0.9% saline (Veh 1) was delivered over both nares alternatively using a 10 μl Eppendorf pipetter. The mouse was held for an additional 5-10 seconds to ensure the fluid was inhaled. […] All mice were treated with insulin or, as a control, saline daily for 7 consecutive days. […] The brains were removed immediately, and the rostral halves (separated coronally at the bregma level) of the mouse brains were dissected, flash frozen in dry ice, and stored at −80° C. for biochemical analyses at a later date.
Hypothermia is known to be a major factor underlying anesthesia-induced tau hyperphosphorylation. Therefore, the rectal temperature of the mice was determined.

[2] = tested on: tau protein kinases (GSK-3β, MAPK/ERK, cdk5, CaMKII, JNK); assay type: in vivo
Procedure: as §1
Mouse brain tissue was homogenized in pre-chilled buffer containing 50 mM Tris-HCl (pH 7.4), 50 mM GlcNAc, 20 μM UDP, 2.0 mM EGTA, 2 mM Na3VO4, 50 mM NaF, 20 mM Glycero-phosphate, 0.5 mM AEBSF, 10 μg/ml aprotinin, 10 μg/ml leupeptin, and 4 μg/ml pepstatin A. Protein concentrations of the homogenates were determined by using modified Lowery method. The samples were resolved in 10% or 12.5% SDS-PAGE and electro-transferred onto Immobilon-P membrane (Millipore, Bedford, Mass., USA). The blots were then probed with primary antibody and developed with the corresponding horseradish peroxidase-conjugated secondary antibody and ECL kit (Pierce, Rockford, Ill.). Densitometrical quantification of protein bands in Western blots were analyzed by using the TINA software (Raytest IsotopenmeBgerate GmbH, Straubenhardt, Germany).
Besides PP2A, tau phosphorylation is also regulated by several protein kinases. The levels of several tau protein kinases have been reported to be altered after anesthesia. We therefore determined the levels of the total and the activated form of several tau protein kinases, including glycogen synthase kinase-3β (GSK-3β), mitogen-activated protein kinase/extracellular signal-regulated kinase (MAPK/ERK), cyclin-dependent kinase 5 (cdk5), calcium/calmodulin-dependent protein kinase II (CaMKII), and c-Jun N-terminal kinase (JNK).

tau phosphorylation = test: Western blot of tau phosphorylation in brain homogenates of 3xTg-AD mice; assay type: in vivo; conditions: intranasal insulin 1.75 U daily 7 days before propofol, 30 min following propofol
Procedure: (§2) The 3xTg-AD mice and WT mice (female, 9 months old) used for the present study were habituated to handling for 14 days prior to the experiment. Female mice were used because the female 3xTg-AD mice develop behavioral deficits faster than the male mice. The selection of the age of 9 months was because the 3xTg-AD mice at this age show neurogenic and neuroplastic deficits but no NFTs or amyloid plaques and are cognitively impaired. Intranasal delivery was carried out manually without anesthesia while the mouse head was restrained in a supine position with the neck in extension, as described. A total of 1.75 U/17.5 μl insulin or 0.9% saline (Veh 1) was delivered over both nares alternatively using a 10 μl Eppendorf pipetter. The mouse was held for an additional 5-10 seconds to ensure the fluid was inhaled. […]
(§3) Mouse brain tissue was homogenized in pre-chilled buffer containing 50 mM Tris-HCl (pH 7.4), 50 mM GlcNAc, 20 μM UDP, 2.0 mM EGTA, 2 mM Na3VO4, 50 mM NaF, 20 mM Glycero-phosphate, 0.5 mM AEBSF, 10 μg/ml aprotinin, 10 μg/ml leupeptin, and 4 μg/ml pepstatin A. Protein concentrations of the homogenates were determined by using modified Lowery method. […] Densitometrical quantification of protein bands in Western blots were analyzed by using the TINA software (Raytest IsotopenmeBgerate GmbH, Straubenhardt, Germany).

old wild type mice = test: Morris water maze (MWM) test after anesthesia
Procedure: This paradigm of anesthesia is similar to that used clinically for surgical patents in the U.S. The cognitive function of the mice was assessed starting on the next day by using the Morris water maze (MWM) test, a widely used cognitive test for rodents.
Probe testing was carried out on the following day after four-day training and was used to evaluate the retrieval of spatial memory.

brain insulin signaling = test: Western blot of brain insulin signaling components; assay type: in vivo, 3xTg-AD mice; conditions: intranasal insulin 7 days prior to propofol; 3xTg-ins/prop vs 3xTg-veh1/prop
Procedure: as §2, §3

PP2A = test: Western blot of PP2A-C level, methylation and Tyr307 phosphorylation in brain; assay type: in vivo, 3xTg-AD mice; conditions: intranasal insulin 7 days before propofol
Procedure: as §2, §3

phosphorylated tau = test: Immunohistochemical staining of brain sections with 12E8 and PHF-1; assay type: in vivo, 3xTg-AD mice; conditions: frontal cortex; 30 min after propofol; 3xTg-ins/prop vs 3xTg-veh1/prop
Procedure: as §1

[3] = insulin treatment before anesthesia vs anesthesia alone

| Molecule | average rectal temperature ([1]; two hours after propofol injection (250 mg/kg i.p.)) [°C] | average rectal temperature ([1]; within 30 min after propofol injection (250 mg/kg i.p.), from around 38.2° C.) [°C] | GSK-3β and ERK ([2]; after anesthesia with propofol) | JNK ([2]; after anesthesia with propofol) | a few other tau kinases ([2]; after anesthesia with propofol) | inhibitory Ser9 phosphorylation of GSK-3β ([2]; after anesthesia with propofol) | body temperature, insulin-treated vs untreated mice ([1]; during propofol anesthesia, intranasal insulin 7 days before) | phosphorylation level of tau at Thr212, Ser262/356 (12E8 sites), Ser396/404 (PHF-1 sites), Ser409 (tau phosphorylation; 3xTg-ins/prop vs 3xTg-veh1/prop) | phosphorylation level of tau at Thr181, Ser199, Thr205, Thr231, Ser422 (tau phosphorylation; insulin-treated vs untreated) | CDK5, CaMKII pT286 and JNK pT184/pY185 ([2]; intranasal insulin treatment, propofol-treated mouse brains) | swimming speeds (old wild type mice; among the four groups (control, anesthesia, insulin+anesthesia, insulin)) | number of platform location crossing during probe test (old wild type mice; [3]) | time to reach the platform location during probe test (old wild type mice; [3]) | spatial learning (old wild type mice; insulin treatment to control mice without anesthesia) | learning performance (time to reach the platform, four training days) (old wild type mice; intranasal insulin 1.75 IU/mouse/day for 7 days before one-time anesthesia) | levels of IRβ, IGF-1Rβ, IRβ pY1150/1151, IRS1 pS307, PI3K p85 pY458, PI3K p55 pY199, PDK1, AKT and AKT pT308 (brain insulin signaling) | net PP2A methylation (PP2A; after normalization with the PP2A-C level) | level and methylation of PP2A in the mouse brain (PP2A; normalized with GAPDH, vs 3xTg-veh1/prop) | number of strongly stained neurons (12E8, PHF-1) (phosphorylated tau) |
| --- | --- | --- | --- | --- | --- | --- | --- | --- | --- | --- | --- | --- | --- | --- | --- | --- | --- | --- | --- |
| CC(C)c1cccc(C(C)C)c1O [propofol] | 25.6 | 28.6 | inhibition | activation | moderate alterations | dramatic increase |  |  |  |  |  |  |  |  |  |  |  |  |  |
| Insulin |  |  |  |  |  |  | no difference | significantly lower | the decreases did not reach statistical significance | mild to moderate reductions | not different | increased | decreased | did not affect spatial learning significantly | as good as control mice | up-regulated | not increased | significant increase | markedly reduced |

From patent US9603905B2, “Intranasal insulin administration for the minimization of anesthesia-induced memory loss” (priority 2014, dated 2017)
